The source of these data is patent publication US9518026B2, “5-aminopyrazole-4-carboxamide inhibitors of CDPK1 from T. gondii and C. parvum” (UNIVERSITY OF WASHINGTON THROUGH ITS CENTER FOR …, priority 2013, dated 2016).

Assay [1] concerns the target CpCDPK1 (Cryptosporidium parvum (strain Iowa II), UniProt A3FQ16). Kind of assay: biochemical. The note with it: Table 1; KinaseGlo, Syntide 2 peptide substrate; read-out: CpCDPK1 IC50. A general note: In Kinase-Glo more light means more ATP remaining.
Assay [2] addresses TgCDPK1 (Toxoplasma gondii, UniProt Q9BJF5). Kind of assay: biochemical. The note with it: read-out: TgCDPK1 IC50.
[3] abbreviates: Table 1, KinaseGlo, Syntide 2 peptide substrate.

SMILES strings stand for the structures. Where two headings read alike, the source gives them in different places.

Chain of TgCDPK1 (Q9BJF5 1-507): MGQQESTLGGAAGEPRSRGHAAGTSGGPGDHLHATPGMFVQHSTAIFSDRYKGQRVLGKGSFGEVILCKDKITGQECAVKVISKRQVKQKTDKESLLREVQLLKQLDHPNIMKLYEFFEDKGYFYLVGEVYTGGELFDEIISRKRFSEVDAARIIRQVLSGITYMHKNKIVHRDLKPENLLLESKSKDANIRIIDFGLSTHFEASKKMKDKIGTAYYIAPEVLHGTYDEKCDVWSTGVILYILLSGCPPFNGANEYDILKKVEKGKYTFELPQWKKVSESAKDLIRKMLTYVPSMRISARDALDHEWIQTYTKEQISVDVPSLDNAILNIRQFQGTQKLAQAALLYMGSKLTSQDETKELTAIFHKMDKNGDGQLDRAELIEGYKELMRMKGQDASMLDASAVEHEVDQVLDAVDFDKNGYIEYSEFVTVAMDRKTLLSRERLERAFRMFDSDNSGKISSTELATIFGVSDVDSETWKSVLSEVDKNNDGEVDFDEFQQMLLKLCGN
Chain of CpCDPK1 (A3FQ16 1-538): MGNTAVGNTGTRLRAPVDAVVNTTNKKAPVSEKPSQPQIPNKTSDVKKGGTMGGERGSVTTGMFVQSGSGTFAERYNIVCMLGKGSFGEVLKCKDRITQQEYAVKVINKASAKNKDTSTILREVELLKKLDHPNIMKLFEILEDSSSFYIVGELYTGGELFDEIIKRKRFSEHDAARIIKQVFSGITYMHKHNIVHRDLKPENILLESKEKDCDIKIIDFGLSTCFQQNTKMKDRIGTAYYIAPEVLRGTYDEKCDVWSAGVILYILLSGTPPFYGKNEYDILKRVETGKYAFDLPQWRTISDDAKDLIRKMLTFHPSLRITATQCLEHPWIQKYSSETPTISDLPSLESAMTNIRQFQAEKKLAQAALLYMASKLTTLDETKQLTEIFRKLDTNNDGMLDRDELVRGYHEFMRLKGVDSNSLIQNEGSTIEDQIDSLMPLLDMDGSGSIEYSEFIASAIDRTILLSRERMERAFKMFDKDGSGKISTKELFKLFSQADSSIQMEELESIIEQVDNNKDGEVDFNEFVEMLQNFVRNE

For the compound `CCOc1ccc2cc(-c3nn(C4CCOC4)c(N)c3C(N)=O)ccc2n1` (centres unmarked) [Compound 1634, 5-amino-3-(2-ethoxyquinolin-6-yl)-1-(tetrahydrofuran-3-yl)-1H-pyrazole-4-carboxamide], in assay [1], the IC50 – broadly, the midpoint of a concentration-inhibition curve – stood at 3 nM.

Regarding `CC(C)(C)COc1ccc2cc(-c3nn(C(C)(C)C)c(N)c3C(N)=O)cnc2c1` [Compound 1587, 5-amino-1-(tert-butyl)-3-(7-(neopentyloxy)quinolin-3-yl)-1H-pyrazole-4-carboxamide], the IC50 in assay [2] (setting [3]) came to 175 nM; in assay [1], 490 nM. `CC(C)(C)n1nc(-c2ccc3ccccc3n2)c(C(N)=O)c1N` [Compound 35, 5-amino-1-(tert-butyl)-3-(quinolin-2-yl)-1H-pyrazole-4-carboxamide]: the IC50 in assay [2] was found to be 49 nM; in assay [1] it was 290 nM. Taken in the same sequence, the figures for `CC(C)(C)n1nc(-c2ccc3oc(=O)ccc3c2)c(C(N)=O)c1N` [Compound 34, 5-amino-1-(tert-butyl)-3-(2-oxo-2H-chromen-6-yl)-1H-pyrazole-4-carboxamide] were 32 nM and 200 nM. In the same order, the values of `CC(C)(C)n1nc(-c2ccc3ncccc3c2)c(C(N)=O)c1N` [Compound 37, 5-amino-1-(tert-butyl)-3-(quinolin-6-yl)-1H-pyrazole-4-carboxamide] are 10 nM and 70 nM.

Regarding `CCOc1ccc2cc(-c3nn(C(C)C(C)C)c(N)c3C(N)=O)cnc2c1` (centres unmarked) [Compound 1628, 5-amino-3-(7-ethoxyquinolin-3-yl)-1-(3-methylbutan-2-yl)-1H-pyrazole-4-carboxamide], the IC50 in assay [1] is 5 nM. On to `Cc1oc2ccccc2c1-c1nn(C(C)(C)C)c(N)c1C(N)=O` [Compound 27, 5-amino-1-(tert-butyl)-3-(2-methylbenzofuran-3-yl)-1H-pyrazole-4-carboxamide], for which, in assay [2], the IC50 was 710 nM. Consider `CCOc1ccc2cc(-c3nn(CCO)c(N)c3C(N)=O)cnc2c1` [Compound 1577, 5-amino-3-(7-ethoxyquinolin-3-yl)-1-(2-hydroxyethyl)-1H-pyrazole-4-carboxamide], for which the IC50 in assay [2] (setting [3]) is 181 nM; in assay [1], 89 nM. In the same order, the values of `Cn1c(=O)[nH]c2cc(-c3nn(C(C)(C)C)c(N)c3C(N)=O)ccc21` [Compound 31, 5-amino-1-(tert-butyl)-3-(1-methyl-2-oxo-2,3-dihydro-1H-benzo[d]imidazol-5-yl)-1H-pyrazole-4-carboxamide] are 640 nM and > 3000 nM. Turning to `CC(C)(C)n1nc(-c2cnc3cc(OC4CC4)ccc3c2)c(C(N)=O)c1N` [Compound 1586, 5-amino-1-(tert-butyl)-3-(7-cyclopropoxyquinolin-3-yl)-1H-pyrazole-4-carboxamide], the IC50 in assay [1] is 5 nM. With `CCOc1ccc2cc(-c3nn(C(C)C(C)(C)O)c(N)c3C(N)=O)ccc2n1` (centres unmarked) [Compound 1636, 5-amino-3-(2-ethoxyquinolin-6-yl)-1-(3-hydroxy-3-methylbutan-2-yl)-1H-pyrazole-4-carboxamide], the IC50 in assay [2] (setting [3]) came out at 58 nM; in assay [1], 18 nM. With `NC(=O)c1c(-c2ccc3ccccc3c2)nn(CCN2CCOCC2)c1N` [Compound 23, 5-amino-1-(2-morpholinoethyl)-3-(naphthalen-2-yl)-1H-pyrazole-4-carboxamide], the IC50 in assay [2] came out at 5 nM; in assay [1], 18 nM.

As to `NC(=O)c1c(-c2ccc3ccccc3c2)nn(CC2CCNCC2)c1N` [Compound 6, 5-amino-3-(naphthalen-2-yl)-1-(piperidin-4-ylmethyl)-1H-pyrazole-4-carboxamide], the IC50 in assay [2] came to 35 nM; in assay [1], 64 nM. For `CCc1ccc2cc(-c3nn(C(C)(C)C)c(N)c3C(N)=O)cnc2c1` [Compound 1592, 5-amino-1-(tert-butyl)-3-(7-ethylquinolin-3-yl)-1H-pyrazole-4-carboxamide], the IC50 in assay [1] was 85 nM.

Consider `CCOc1ccc2cc(-c3nn(CC(C)(C)O)c(N)c3C(N)=O)cnc2c1` [Compound 1641, 5-amino-3-(7-ethoxyquinolin-3-yl)-1-(2-hydroxy-2-methylpropyl)-1H-pyrazole-4-carboxamide], for which the IC50 in assay [2] (setting [3]) is 41 nM; in assay [1] it was 21 nM.

With `CCOc1ccc2cc(-c3nn(C(C)CO)c(N)c3C(N)=O)cnc2c1` (centres unmarked) [Compound 1627, 5-amino-3-(7-ethoxyquinolin-3-yl)-1-(1-hydroxypropan-2-yl)-1H-pyrazole-4-carboxamide], the values for the IC50 in assay [2] (setting [3]) and in assay [1] were 20 nM and 9 nM, respectively. Turning to `Cn1c(N)nc2cc(-c3nn(C(C)(C)C)c(N)c3C(N)=O)ccc21` [Compound 33, 5-amino-3-(2-amino-1-methyl-1H-benzo[d]imidazol-5-yl)-1-(tert-butyl)-1H-pyrazole-4-carboxamide], the IC50 in assay [2] was 730 nM.

For the compound `NC(=O)c1c(-c2ccc3ccccc3c2)nn(CC2CCCCC2)c1N` [Compound 16, 5-amino-1-(cyclohexylmethyl)-3-(naphthalen-2-yl)-1H-pyrazole-4-carboxamide], the concentration for half-maximal inhibition (IC50) in assay [2] worked out at 59 nM; in assay [1], 150 nM.

On to `NC(=O)c1c(-c2ccc3ccccc3c2)nn(CC2CC2)c1N` [Compound 15, 5-amino-1-(cyclopropylmethyl)-3-(naphthalen-2-yl)-1H-pyrazole-4-carboxamide], for which the IC50 in assay [2] is 7 nM; in assay [1], 10 nM. For `CCOc1ccc2cc(-c3nn(C(CO)CO)c(N)c3C(N)=O)cnc2c1` [Compound 1629, 5-amino-1-(1,3-dihydroxypropan-2-yl)-3-(7-ethoxyquinolin-3-yl)-1H-pyrazole-4-carboxamide], the IC50 in assay [2] (setting [3]) came to 120 nM; in assay [1], 52 nM. In the same order, the values of `CCOc1ccc2ncc(-c3nn(C(C)(C)C)c(N)c3C(N)=O)cc2c1` [Compound 1654, 5-amino-1-(tert-butyl)-3-(6-ethoxyquinolin-3-yl)-1H-pyrazole-4-carboxamide] are > 2000 nM and > 2000 nM.

On to `CCOc1ccc2cc(-c3nn(CC4CCCCC4)c(N)c3C(N)=O)cnc2c1` [Compound 1574, 5-amino-1-(cyclohexylmethyl)-3-(7-ethoxyquinolin-3-yl)-1H-pyrazole-4-carboxamide], for which the IC50 in assay [1] was found to be 30 nM.

Consider `CCOc1ccc2ncc(-c3nn(C4CCCCC4)c(N)c3C(N)=O)cc2c1` [Compound 1655, 5-amino-1-cyclohexyl-3-(6-ethoxyquinolin-3-yl)-1H-pyrazole-4-carboxamide], for which the IC50 in assay [2] (setting [3]) and in assay [1] was > 2000 nM in each case.

Regarding `CCOc1ccc2nc(-c3nn(C(C)(C)C)c(N)c3C(N)=O)ccc2c1` [Compound 36, 5-amino-1-(tert-butyl)-3-(6-ethoxyquinolin-2-yl)-1H-pyrazole-4-carboxamide], the half-maximal inhibitory concentration (IC50) in assay [2] worked out at 350 nM; in assay [1], 390 nM. `CCOc1ccc2cc(-c3nn(C(C)C4CC4)c(N)c3C(N)=O)cnc2c1` (centres unmarked) [Compound 1631, 5-amino-1-(1-cyclopropylethyl)-3-(7-ethoxyquinolin-3-yl)-1H-pyrazole-4-carboxamide]: the IC50 came out at 10 nM in assay [2] (setting [3]) and 5 nM in assay [1]. In the same order, the values of `CC(C)(C)n1nc(-c2cnc3cc(OC(F)(F)F)ccc3c2)c(C(N)=O)c1N` [Compound 1565, 5-amino-1-tert-butyl-3-(7-(trifluoromethoxy)quinolin-3-yl)-1H-pyrazole-4-carboxamide] are 31 nM and 38 nM. Taken in the same sequence, the figures for `COCCOc1ccc2cc(-c3nn(C(C)(C)C)c(N)c3C(N)=O)cnc2c1` [Compound 1570, 5-amino-1-(tert-butyl)-3-(7-(2-methoxyethoxy)quinolin-3-yl)-1H-pyrazole-4-carboxamide] were 258 nM and 255 nM.

Regarding `CC(C)(C)n1nc(-c2cnc3cc(C(F)(F)F)ccc3c2)c(C(N)=O)c1N` [Compound 1555, 5-amino-1-tert-butyl-3-(7-(trifluoromethyl)quinolin-3-yl)-1H-pyrazole-4-carboxamide], in assay [1], the IC50 is 222 nM. As for `CCOc1ccc2cc(-c3nn(C(C)(C)C)c4ncnc(N)c34)ccc2c1` [Compound 4, 1-tert-butyl-3-(6-ethoxynaphthalen-2-yl)-1H-pyrazolo[3,4-d]pyrimidin-4-amine, reference compound], the IC50 in assay [1] came out at 43 nM.

As to `CC(C)(C)n1nc(-c2ccc3cc(O)ccc3c2)c(C(N)=O)c1N` [Compound 24, 5-amino-1-(tert-butyl)-3-(6-hydroxynaphthalen-2-yl)-1H-pyrazole-4-carboxamide], the IC50 in assay [1] was determined as 17 nM. Consider `Cn1nc(N)c2ccc(-c3nn(C(C)(C)C)cc3C(N)=O)cc21` [Compound 29, 3-(3-amino-1-methyl-1H-indazol-6-yl)-1-(tert-butyl)-1H-pyrazole-4-carboxamide], for which, in assay [2] (setting [3]), the IC50 came to 17 nM.

As to `Nc1ncnc2c1c(-c1ccc3ccccc3c1)nn2CC1CCNCC1` [Compound 7, 3-(naphthalen-2-yl)-1-(piperidin-4-ylmethyl)-1H-pyrazolo[3,4-d]pyrimidin-4-amine, reference compound], in assay [1], the IC50 came out at 1 nM. On to `CC(C)(C)n1nc(-c2cnc3cc(OCC4CC4)ccc3c2)c(C(N)=O)c1N` [Compound 1585, 5-amino-1-(tert-butyl)-3-(7-(cyclopropylmethoxy)quinolin-3-yl)-1H-pyrazole-4-carboxamide], for which, in assay [1], the IC50 turned out to be 9 nM. On to `CCOc1ccc2cc(-c3nn(CC(F)(F)F)c(N)c3C(N)=O)cnc2c1` [Compound 1575, 5-amino-3-(7-ethoxyquinolin-3-yl)-1-(2,2,2-trifluoroethyl)-1H-pyrazole-4-carboxamide], for which the IC50 in assay [1] turned out to be 5 nM. For `CC(C)n1nc(-c2ccc3ccccc3c2)c(C(N)=O)c1N` [Compound 13, 5-amino-1-isopropyl-3-(naphthalen-2-yl)-1H-pyrazole-4-carboxamide], the IC50 in assay [1] amounted to 7 nM. Turning to `CC(C)Cn1nc(-c2ccc3ccccc3c2)c(C(N)=O)c1N` [Compound 14, 5-amino-1-isobutyl-3-(naphthalen-2-yl)-1H-pyrazole-4-carboxamide], the IC50 in assay [1] came to 16 nM.
